Earlier results, collected in article PMC10465233, “Lys-urea-Aad, Lys-urea-Cmc and Lys-urea-Cms as potential pharmacophores for the design of PSMA-targeted radioligands to reduce off-target uptake in kidneys and salivary glands” (Theranostics, 2023).
Read-outs that look alike come from different tables or passages of the source.

System: LNCaP tumor-bearing mice
Conditions: cited from earlier work
[1] = vs Glu-containing [^68Ga]Ga-HTK03041, 1 h post-injection

O=C([O-])CN1CCN(CC(=O)[O-])CCN(CC(=O)NCC2CCC(C(=O)NC(Cc3c4ccccc4cc4ccccc34)C(=O)NCCCCC(NC(=O)NC(CCCC(=O)O)C(=O)O)C(=O)O)CC2)CCN(CC(=O)[O-])CC1.[68Ga+3] (stereo not drawn) [[^68Ga]Ga-HTK03149]
Kidney uptake (1 h post-injection): 4.15±1.46 %ID/g
Tumor uptake (1 h post-injection): 19.1±6.37 %ID/g
Tumor uptake (1 h post-injection, listed as [^68Ga]HTK03149): ~ 20 %ID/g
Salivary gland uptake (1 h post-injection, unreported data in b5): 0.22±0.06 %ID/g
Reduction in kidney uptake [1]: > 95%
Reduction in salivary gland uptake [1]: > 95%
